Measured values reported in US12077503B2, “Substituted cyclic amides and their use as herbicides” (FMC CORPORATION, priority 2015, dated 2024).

Experiments:
Type in all cases: in vivo
[1] = tested on: ragweed (common ragweed, Ambrosia elatior); assay: Test A postemergence; details: for Ragweed plant response rating: 125 g ai/ha, postemergence, visual injury rating on 0 to 100 scale (0 no effect, 100 complete control), approx. 10 d; for Plant response rating, Ragweed: Postemergence, 500 g ai/ha, 0 to 100 scale where 0 is no effect and 100 is complete control
Procedure, shortened: (§1)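 Treatment is preemergence as a directed soil spray after planting, or postemergence at the one- to two-leaf stage, with test chemical in a non-phytotoxic solvent mixture plus surfactant. Plants stay in the greenhouse about 10 d before visual injury scoring on a 0 to 100 scale versus untreated controls.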

Kochia (Kochia scoparia) [2] = assay: Test A postemergence; details: for Kochia plant response rating: 125 g ai/ha, postemergence, visual injury rating on 0 to 100 scale (0 no effect, 100 complete control), approx. 10 d; for Plant response rating, Kochia: Postemergence, 500 g ai/ha, 0 to 100 scale where 0 is no effect and 100 is complete control
Procedure, shortened: as §1

[3] = tested on: blackgrass (Alopecurus myosuroides); assay: Test A postemergence; details: postemergence; for Blackgrass plant response rating: 125 g ai/ha, visual injury rating on 0 to 100 scale (0 no effect, 100 complete control), approx. 10 d; for Plant response rating, Blackgrass: 500 g ai/ha, 0 to 100 scale, 0 no effect, 100 complete control
Procedure, shortened: as §1

[4] = tested on: giant foxtail (Setaria faberii); assay: Test A postemergence; details: for Foxtail, Giant plant response rating: 125 g ai/ha, postemergence, visual injury rating on 0 to 100 scale (0 no effect, 100 complete control), approx. 10 d; for Plant response rating, Foxtail, Giant: Postemergence, 500 g ai/ha, 0 to 100 scale where 0 is no effect and 100 is complete control
Procedure, shortened: as §1

[5] = tested on: wheat (Triticum aestivum); assay: Test A postemergence; details: for Wheat plant response rating: 125 g ai/ha, postemergence, visual injury rating on 0 to 100 scale (0 no effect, 100 complete control), approx. 10 d; for Plant response rating, Wheat: Postemergence, 500 g ai/ha, 0 to 100 scale where 0 is no effect and 100 is complete control
Procedure, shortened: as §1

[6] = tested on: pigweed (Amaranthus retroflexus); assay: Test A postemergence; details: for Pigweed plant response rating: 125 g ai/ha, postemergence, visual injury rating on 0 to 100 scale (0 no effect, 100 complete control), approx. 10 d; for Plant response rating, Pigweed: Postemergence, 500 g ai/ha, 0 to 100 scale where 0 is no effect and 100 is complete control
Procedure, shortened: as §1

[7] = tested on: Galium (catchweed bedstraw, Galium aparine); assay: Test A postemergence; details: for Galium plant response rating: 125 g ai/ha, postemergence, visual injury rating on 0 to 100 scale (0 no effect, 100 complete control), approx. 10 d; for Plant response rating, Galium: Postemergence, 500 g ai/ha, 0 to 100 scale where 0 is no effect and 100 is complete control
Procedure, shortened: as §1

[8] = tested on: barnyardgrass (Echinochloa crus-galli); assay: Test A postemergence; details: postemergence; for Barnyardgrass plant response rating: 125 g ai/ha, visual injury rating on 0 to 100 scale (0 no effect, 100 complete control), approx. 10 d; for Plant response rating, Barnyardgrass: 500 g ai/ha, 0 to 100 scale, 0 no effect, 100 complete control
Procedure, shortened: as §1

corn (Zea mays) = assay: Test A postemergence; details: postemergence; for Corn plant response rating: 125 g ai/ha, visual injury rating on 0 to 100 scale (0 no effect, 100 complete control), approx. 10 d; for Plant response rating, Corn: 500 g ai/ha, 0 to 100 scale, 0 no effect, 100 complete control
Procedure, shortened: as §1

[9] = tested on: ryegrass, Italian (Italian ryegrass, Lolium multiflorum); assay: Test A postemergence; details: for Ryegrass, Italian plant response rating: 125 g ai/ha, postemergence, visual injury rating on 0 to 100 scale (0 no effect, 100 complete control), approx. 10 d; for Plant response rating, Ryegrass, Italian: Postemergence, 500 g ai/ha, 0 to 100 scale where 0 is no effect and 100 is complete control
Procedure, shortened: as §1

[10] = tested on: ragweed (common ragweed, Ambrosia elatior); assay: Test A preemergence; details: Preemergence; for Plant response rating, Ragweed: 125 g ai/ha, visual injury after approximately 10 d, 0 to 100 scale where 0 is no effect and 100 is complete control; for Ragweed plant response rating (0 to 100 scale, 0 is no effect, 100 is complete control): 500 g ai/ha, visual injury approx. 10 d
Procedure, shortened: as §1

Kochia (Kochia scoparia) [11] = assay: Test A preemergence; details: for Plant response rating, Kochia: 125 g ai/ha, preemergence, 0 to 100 scale (0 no effect, 100 complete control); for Kochia plant response rating (0 to 100 scale, 0 is no effect, 100 is complete control): Preemergence, 500 g ai/ha, visual injury approx. 10 d
Procedure, shortened: as §1

[12] = tested on: giant foxtail (Setaria faberii); assay: Test A preemergence; details: for Plant response rating, Foxtail, Giant: 125 g ai/ha, preemergence, 0 to 100 scale (0 no effect, 100 complete control); for Foxtail, Giant plant response rating (0 to 100 scale, 0 is no effect, 100 is complete control): Preemergence, 500 g ai/ha, visual injury approx. 10 d
Procedure, shortened: as §1

[13] = tested on: pigweed (Amaranthus retroflexus); assay: Test A preemergence; details: Preemergence; for Plant response rating, Pigweed: 125 g ai/ha, visual injury after approximately 10 d, 0 to 100 scale where 0 is no effect and 100 is complete control; for Pigweed plant response rating (0 to 100 scale, 0 is no effect, 100 is complete control): 500 g ai/ha, visual injury approx. 10 d
[14] = tested on: barnyardgrass (Echinochloa crus-galli); assay: Test A preemergence; details: for Plant response rating, Barnyardgrass: 125 g ai/ha, preemergence, 0 to 100 scale (0 no effect, 100 complete control); for Barnyardgrass plant response rating (0 to 100 scale, 0 is no effect, 100 is complete control): Preemergence, 500 g ai/ha, visual injury approx. 10 d
Procedure, shortened: as §1

[15] = tested on: ryegrass, Italian (Italian ryegrass, Lolium multiflorum); assay: Test A preemergence; details: Preemergence; for Plant response rating, Ryegrass, Italian: 125 g ai/ha, visual injury after approximately 10 d, 0 to 100 scale where 0 is no effect and 100 is complete control; for Ryegrass, Italian plant response rating (0 to 100 scale, 0 is no effect, 100 is complete control): 500 g ai/ha, visual injury approx. 10 d
Procedure, shortened: as §1

[16] = tested on: sedge, umbrella (small-flower umbrella sedge, Cyperus difformis); assay: Test B flooded paddy test; details: Flood, 250 g ai/ha; 0 to 100 scale where 0 is no effect and 100 is complete control; 13 to 15 d
Procedure, shortened: (§2)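 Rating scale 0–100 (visual, vs untreated controls) after a 13–15 d greenhouse period; application to the flood layer, 3 cm above soil and maintained; plants at 2-leaf stage when treated.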

rice (Oryra sativa) = assay: Test B flooded paddy test; details: Flood, 250 g ai/ha; 0 to 100 scale where 0 is no effect and 100 is complete control; 13 to 15 d
Procedure, shortened: as §2

[17] = tested on: barnyardgrass (Echinochloa crus-galli); assay: Test B flooded paddy test; details: Flood, 250 g ai/ha; 0 to 100 scale where 0 is no effect and 100 is complete control; 13 to 15 d
Procedure, shortened: as §2

[18] = tested on: ducksalad (Heteranthera limosa); assay: Test B flooded paddy test; details: Flood, 250 g ai/ha; 0 to 100 scale where 0 is no effect and 100 is complete control; 13 to 15 d
Procedure, shortened: as §2

CN1CC(c2ccc(C(F)(F)F)cc2F)C(C(=O)Nc2cccc(F)c2F)C1=O (stereo not drawn) [Compound 472]
60: Kochia plant response rating (Kochia (Kochia scoparia) [2]) | Plant response rating, Blackgrass [3] | Plant response rating, Wheat [5] | Pigweed plant response rating [6] | Plant response rating, Pigweed [6] | Plant response rating, Ryegrass, Italian [9] | Plant response rating, Barnyardgrass [17]
90: Plant response rating, Foxtail, Giant [4] | Barnyardgrass plant response rating [8] | Plant response rating, Barnyardgrass [8] | Plant response rating, Foxtail, Giant [12] | Foxtail, Giant plant response rating (0 to 100 scale, 0 is no effect, 100 is complete control) [12] | Pigweed plant response rating (0 to 100 scale, 0 is no effect, 100 is complete control) [13] | Plant response rating, Barnyardgrass [14] | Barnyardgrass plant response rating (0 to 100 scale, 0 is no effect, 100 is complete control) [14]
40: Corn plant response rating (corn (Zea mays)) | Ryegrass, Italian plant response rating [9]
80: Foxtail, Giant plant response rating [4] | Plant response rating, Corn (corn (Zea mays)) | Plant response rating, Kochia (Kochia (Kochia scoparia) [11]) | Kochia plant response rating (0 to 100 scale, 0 is no effect, 100 is complete control) (Kochia (Kochia scoparia) [11]) | Plant response rating, Pigweed [13] | Ryegrass, Italian plant response rating (0 to 100 scale, 0 is no effect, 100 is complete control) [15]
50: Galium plant response rating [7] | Plant response rating, Galium [7] | Ragweed plant response rating (0 to 100 scale, 0 is no effect, 100 is complete control) [10] | Plant response rating, Ryegrass, Italian [15]
30: Blackgrass plant response rating [3] | Wheat plant response rating [5]
0: Ragweed plant response rating [1] | Plant response rating, Ragweed [1] | Plant response rating, Ragweed [10] | Plant response rating, Sedge, Umbrella [16]
20: Plant response rating, Rice (rice (Oryra sativa))
70: Plant response rating, Kochia (Kochia (Kochia scoparia) [2])
75: Plant response rating, Ducksalad [18]

CN1CC(c2ccc(C(F)(F)F)cc2F)C(C(=O)Nc2ccccc2F)C1=O (stereo not drawn) [Compound 476]
20: Blackgrass plant response rating [3] | Pigweed plant response rating [6]
0: Ragweed plant response rating [1] | Plant response rating, Ragweed [1] | Wheat plant response rating [5] | Corn plant response rating (corn (Zea mays)) | Plant response rating, Ragweed [10] | Plant response rating, Ryegrass, Italian [15] | Plant response rating, Sedge, Umbrella [16] | Plant response rating, Rice (rice (Oryra sativa)) | Plant response rating, Barnyardgrass [17]
30: Kochia plant response rating (Kochia (Kochia scoparia) [2]) | Plant response rating, Wheat [5] | Galium plant response rating [7] | Plant response rating, Corn (corn (Zea mays)) | Ryegrass, Italian plant response rating [9] | Plant response rating, Pigweed [13]
100: Foxtail, Giant plant response rating (0 to 100 scale, 0 is no effect, 100 is complete control) [12]
80: Foxtail, Giant plant response rating [4] | Plant response rating, Foxtail, Giant [4] | Pigweed plant response rating (0 to 100 scale, 0 is no effect, 100 is complete control) [13] | Plant response rating, Ducksalad [18]
90: Barnyardgrass plant response rating [8] | Plant response rating, Barnyardgrass [8] | Plant response rating, Foxtail, Giant [12] | Plant response rating, Barnyardgrass [14] | Barnyardgrass plant response rating (0 to 100 scale, 0 is no effect, 100 is complete control) [14]
70: Kochia plant response rating (0 to 100 scale, 0 is no effect, 100 is complete control) (Kochia (Kochia scoparia) [11])
50: Plant response rating, Blackgrass [3] | Plant response rating, Kochia (Kochia (Kochia scoparia) [11])
60: Plant response rating, Kochia (Kochia (Kochia scoparia) [2]) | Plant response rating, Galium [7] | Ragweed plant response rating (0 to 100 scale, 0 is no effect, 100 is complete control) [10]
40: Plant response rating, Pigweed [6] | Plant response rating, Ryegrass, Italian [9] | Ryegrass, Italian plant response rating (0 to 100 scale, 0 is no effect, 100 is complete control) [15]

CC(C)=CCN1CC(c2cccc(C(F)(F)F)c2)C(C(=O)Nc2ccccc2F)C1=O (stereo not drawn) [Compound 478]
0: Ragweed plant response rating [1] | Plant response rating, Ragweed [1] | Kochia plant response rating (Kochia (Kochia scoparia) [2]) | Plant response rating, Kochia (Kochia (Kochia scoparia) [2]) | Blackgrass plant response rating [3] | Wheat plant response rating [5] | Pigweed plant response rating [6] | Plant response rating, Pigweed [6] | Galium plant response rating [7] | Plant response rating, Galium [7] | Corn plant response rating (corn (Zea mays)) | Plant response rating, Corn (corn (Zea mays)) | Ryegrass, Italian plant response rating [9] | Plant response rating, Ragweed [10] | Ragweed plant response rating (0 to 100 scale, 0 is no effect, 100 is complete control) [10] | Plant response rating, Kochia (Kochia (Kochia scoparia) [11]) | Kochia plant response rating (0 to 100 scale, 0 is no effect, 100 is complete control) (Kochia (Kochia scoparia) [11]) | Plant response rating, Pigweed [13] | Pigweed plant response rating (0 to 100 scale, 0 is no effect, 100 is complete control) [13] | Plant response rating, Ryegrass, Italian [15] | Ryegrass, Italian plant response rating (0 to 100 scale, 0 is no effect, 100 is complete control) [15] | Plant response rating, Sedge, Umbrella [16] | Plant response rating, Rice (rice (Oryra sativa)) | Plant response rating, Barnyardgrass [17] | Plant response rating, Ducksalad [18]
60: Plant response rating, Foxtail, Giant [4] | Plant response rating, Barnyardgrass [8] | Barnyardgrass plant response rating (0 to 100 scale, 0 is no effect, 100 is complete control) [14]
80: Foxtail, Giant plant response rating (0 to 100 scale, 0 is no effect, 100 is complete control) [12]
20: Plant response rating, Blackgrass [3] | Foxtail, Giant plant response rating [4] | Plant response rating, Wheat [5] | Plant response rating, Ryegrass, Italian [9] | Plant response rating, Barnyardgrass [14]
70: Plant response rating, Foxtail, Giant [12]
30: Barnyardgrass plant response rating [8]
